Assay [1] has as its system HBV. Nature of the assay: Antiviral activity in AML12HBV10 cells (HBV DNA dot-blot hybridization). The class given is cell-based. The conditions noted are these: Hepatitis B virus, Table 33, scaffold (XIV) drawing 940, 48 hours. As to the method: The antiviral efficacy of the compounds of the disclosure, as presented in Tables 21 through 39 were determined in AML12HBV10 cells. AML12HBV10 is an immortalized murine hepatocyte (AML12)-derived stable cell line that supports robust HBV replication in a tetracycline inducible manner (Xu et al.). The cells were seeded into 96 well plates at a density of 2×10^4 cells per well and cultured in DMEM/F12 media with 10% fetal bovine serum in the absence of tetracycline to allow pgRNA transcription and HBV DNA replication. One day after seeding, cells were left untreated or treated with a serial dilution of testing compounds, ranging from 50 μM to 0.39 μM, for 48 hours. Cells were then lysed by adding into each well of 100 μl lysis buffer containing 10 mM Tris-HCl (pH 7.6), 1 mM EDTA, 100 mM NaCl and 1% NP-40 and incubated at 37° C. for 30 minutes. Half amount (50 μl) of cell lysate from each well was combined with equal volume of denaturing solution containing 0.5N NaOH and 1.5M NaCl. After 5 minute incubation, 100 μl of neutralization solution (1M Tris-HCl, pH 7.4, 1.5M NaCl) was added into each well. The denatured cell lysates (totally 200 μl) were applied onto Nylon membrane using 96-well dot-blot manifold (Biorad). HBV DNA in the cell lysates were determined by dot-blot hybridization with alpha-^32P-UTP-labelled riboprobe specific for HBV minus strand DNA.

Assay [2] relates to HBV. As to the kind of experiment: Antiviral activity in HepDES19 cells (core-associated HBV DNA, Southern blot hybridization). The class given is cell-based. The conditions noted are these: Hepatitis B virus, 144 h, Table 33, scaffold (XIV) drawing 940, 6 days.
Protocol: Two days after seeding, the cells were mock-treated or treated with a serial dilution of compounds of the disclosure, ranging from 10 μM to 0.018 μM, for 6 days in the absence of tetracycline. Upon the completion of treatment, cells were lysed by adding into each well of the 12-well plates 0.5 ml of lysis buffer containing 10 mM Tris-HCl (pH 8.0), 1 mM EDTA, 1% NP40 and 2% sucrose and incubating at 37° C. for 10 minutes. Cell debris and nuclei were removed by centrifugation and the supernatant was mixed with 130 μl of 35% polyethylene glycol (PEG) 8000 containing 1.5 M NaCl. After 1 hour incubation in ice, viral nucleocapsids were pelleted by centrifugation at 6,000×g for 5 min at 4° C., followed by 1 hour digestion at 37° C. in 400 μl of digestion buffer containing 0.5 mg/ml pronase (Calbiochem), 0.5% SDS, 150 mM NaCl, 25 mM Tris-HCl (pH 8.0) and 10 mM EDTA. The digestion mixture was extracted twice with phenol and DNA was precipitated with ethanol, dissolved in TE buffer (10 mM Tris-HC 1, pH 8.0; 0.1 mM EDTA). One half of the DNA sample from each well was resolved by electrophoresis into a 1.5% agarose gel. The gel was then subjected to denaturation in a solution containing 0.5 M NaOH and 1.5 M NaCl, followed by neutralization in a buffer containing 1 M Tris-HCl (pH7.4) and 1.5 M NaCl. DNA was then blotted onto Hybond-XL membrane (GE Health care) in 20×SSC buffer.

These results are taken from US9938236B2, “Antiviral agents against HBV infection” (DREXEL UNIVERSITY, priority 2012, dated 2018).

In the case of `Cc1ccc(S(=O)(=O)N[C@H](C)C(C)C)cc1C(=O)Nc1ccc(F)c(F)c1` [XIV: A=H, B=Me, C=H, D=H, (R)-N-(3,4-Difluorophenyl)-2-methyl-5-(N-(3-methylbutan-2-yl)sulfamoyl)benzamide], the EC50 in the assay with HBV [1] and with HBV [2] was below 1000 nM throughout. As to `CC(C)[C@@H](C)NS(=O)(=O)c1cc(C(=O)Nc2ccc(F)c(F)c2)c(F)cc1F` [XIV: A=H, B=F, C=H, D=F, (R)-N-(3,4-Difluorophenyl)-2,4-difluoro-5-(N-(3-methylbutan-2-yl)sulfamoyl)benzamide], the EC50 with HBV [1] lay in the range of 1000 to 5000 nM. As for `COc1ccc(S(=O)(=O)N[C@H](C)C(C)C)cc1C(=O)Nc1ccc(F)c(F)c1` [XIV: A=H, B=OMe, C=H, D=H, (R)-N-(3,4-Difluorophenyl)-2-methoxy-5-(N-(3-methylbutan-2-yl)sulfamoyl)benzamide], the EC50 in the assay on HBV [1] and in the assay with HBV [2] was below 1000 nM each time. Regarding `CC(C)[C@@H](C)NS(=O)(=O)c1ccc(Cl)c(C(=O)Nc2ccc(F)c(F)c2)c1` [XIV: A=H, B=Cl, C=H, D=H, (R)-2-chloro-N-(3,4-Difluorophenyl)-5-(N-(3-methylbutan-2-yl)sulfamoyl)benzamide], the EC50 in the assay with HBV [1] is below 1000 nM.
